Measurements from patent publication US20080070987A1, “META-XYLYLENEDIAMINE VANADATE SALTS” (priority 2006, published 2008).

Legend:
[1] = test system: streptozotocin-induced diabetic rats; test: Chronic subcutaneous (osmotic minipump) treatment of streptozotocin-induced diabetic rats, glycemia; assay type: in vivo, rat; conditions: for effect on glycemia, in words: streptozotocin (45 mg/kg) diabetic rats, 2.5 μmol/kg/day subcutaneous by osmotic minipumps, about two weeks
Experimental: FIG. 3 is a graphical illustration of hexaquis(benzylammonium) decavanadate chronic treatment effect on glycemia of diabetic rats by streptozotocin. In FIG. 3, [G] corresponds to the blood concentration of glucose (expressed in mg/dl) measured at different days of treatment (t/d). Diabetic rats were treated, by mini-osmotic pumps, with buffered solution (black diamonds), with hexaquis(benzylammonium) decavanadate (2.5 μmol/kg/day) (black squares) or with identical dose of sodium decavanadate (white circles).
The effect of chronic administration of hexaquis(benzylammonium) decavanadate on glycemia from diabetic rats was determined. Diabetes was induced in rats by intravenous administration of streptozotocin, which destroys the β-pancreatic cells that produce insulin.
Male Wistar rats weighting 180-220 g were purchased from Harlan (Interfauna Ibérica S.A., Spain). Diabetes was induced by a single intraperitoneal injection of a freshly prepared solution of streptozotocin (in some studies the dose was 45 mg/kg body weight and in some others 100 mg/kg body weight dissolved in 50 mM citrate buffer, pH 4.5). Only diabetic animals with glycemia above 300 mg/dl were used. The animals were housed in animal quarters at 22° C. with a 12 h light/12 h dark cycle and were fed ad libitum. All procedures used were approved by the animal ethical committee of the University of Barcelona, Spain. Male mice C57 BL/Ks bearing the db/db mutation (Jackson Laboratories, Bar Harbor, Me.) were purchased from Harlan France (Gannat, France). C57BL/6J male mice were assigned for 16 weeks to very high-fat diet containing (in kcal): 72% from fat, 28% from proteins and <1% from carbohydrates (Burcelin et al., 2002, Am. J. Physiol. Endocrinol. Metab 282: E834-E842).
Osmotic minipumps delivering B6V10 (2.5 μmol/kg body wt/day) or decavanadate (2.5 μmol/kg body wt/day) were implanted subcutaneously in diabetic rats anaesthetised by ketamine hydrochloride (95 mg/kg) and xylasine (10 mg/kg). […] Glycemia was measured on arterio-venous blood collected from the tail vessels at 09:00 am for two weeks, before the administration of vanadate. Insulin concentrations were determined before and after treatment. In another set of experiments, B6V10 was orally administered at a single dose of 5 μmol/kg/day during the first week and 10 μmol/kg/day during 2 additional weeks by gastric gavage. A control group received the corresponding decavanadate salt in the absence of benzylamine. At the end of the treatment, animals were sacrificed and the liver, fat pad, heart and lung were kept at −80° C. and the plasma at −20° C. until their use for in vitro analysis.
In glucose tolerance tests and in chronic treatments, circulating glucose concentrations were determined by a rapid glucose analyser (Accutrend® Sensor Comfort, Roche, Basel. Switzerland). Plasma insulin (IRI) concentration was determined by ELISA method using a kit obtained from Crystal Chem. Inc. (Downers Grove, Ill.). Plasma triglycerides (Biosystems, Barcelona, Spain) and NEFAS (Wako Chemicals, Neuss, Germany) were determined with standard […] methods.
Chronic in vivo efficacy of B6V10 was evaluated in streptozotocin-induced diabetic rats and in db/db mice. Streptozotocin-induced (45 mg/kg) diabetic rats were subcutaneously treated with hexaquis(benzylammonium) decavanadate (2.5 μmol/kg) (B6V10, solid squares, FIG. 8A) or with decavanadate (2.5 μmol/kg) (V10, open circles, FIG. 8A) delivered subcutaneously by osmotic minipumps implanted in the dorsal region. Diabetic rats were also sham-operated (untreated, solid diamonds, FIG. 8A). […] These experiments were repeated using an oral administration protocol. Streptozotocin-induced (45 mg/kg) diabetic rats were orally treated with hexaquis(benzylammonium) decavanadate (5 μmol/kg from day 0 to day 7 and 10 μmol/kg/day from day 7 to day 17) (B6V10, solid squares, FIG. 8B) or received decavanadate (10 μmol/kg) (V10, open circles, FIG. 8B). […]

[2] = test system: isolated mouse adipocytes; test: Glucose (2-deoxyglucose) transport in isolated mouse adipocytes; assay type: cell-based, FVB mice; conditions: 100 μM
Experimental: Adipose cells from FVB mice were incubated for 45 minutes in basal conditions (Basal) or in the presence of 100 nM insulin (Ins), and different concentrations of hexaquis(benzylammonium) decavanadate (B6V10) in the absence or in the presence of 1 mM semicarbazide (SCZ) and thereafter, 2-DG transport was measured over 5 min.

Row | Substance | effect on glycemia, in words [1] | effect on glycemia, in words ([1]; listed as sodium decavanadate) | stimulation of glucose transport (% increase) [2] [%] | time at which reduction of hyperglycemia was detected ([1]; 2.5 μmol/kg/day subcutaneous minipumps) | glucose transport in adipocytes isolated from treated rats ([1]; adipocytes isolated at fourteen days of treatment) | effect on glycemia, in words ([1]; listed as hexaquis(benzylammonium) decavanadate)
1 | sodium decavanadate [Example V10, reference compound] | did not alter glycemia | did not modify substantially its glycemia |  |  |  | 
2 | hexaquis(benzylammonium) decavanadate [Example B6V10] | significant correction of hyperglycemia |  | 93 | after only four days of treatment | increased glucose transport under basal conditions equivalent to that seen in the presence of insulin | rapid reduction of the hyperglycemia
